Key:
[1] = system: MCF7; assay: Cytotoxicity against human MCF7 cells after 48 hrs by MTT assay; conditions: MCF7, 48 h
[2] = system: HL-60; assay: Cytotoxicity against human HL60 cells after 48 hrs by MTT assay; conditions: HL-60, 48 h
[3] = system: SMMC-7721; assay: Cytotoxicity against human SMMC7721 cells after 48 hrs by MTT assay; conditions: SMMC-7721, 48 h
[4] = system: A549; assay: Cytotoxicity against human A549 cells after 48 hrs by MTT assay; conditions: A549, 48 h
[5] = system: SW480; assay: Cytotoxicity against human SW480 cells after 48 hrs by MTT assay; conditions: SW480, 48 h

SMILES	IC50 [1] [µM]	IC50 [2] [µM]	IC50 [3] [µM]	IC50 [4] [µM]	IC50 [5] [µM]
CC(C)=CCC[C@]1(C)[C@@H](CC=C(C)C)C[C@]23C[C@@H](C(C)(C)O)OC2=C(C[C@H]2OC(C)(C)[C@H](CO)C2(C)C)C(=O)[C@@]1(C(=O)C(C)C)C3=O	9.3	8.8	9.5	5.6	7.4
CC(C)=CCC[C@]1(C)[C@@H](CC=C(C)C)C[C@]23C[C@@H](C(C)(C)O)OC2=C(C[C@@H]2OC(C)(C)[C@@H](CO)C2(C)C)C(=O)[C@@]1(C(=O)c1ccccc1)C3=O	> 20	12.6	8.2	17.9	9.2
CC(C)=CCC[C@]1(C)[C@@H](CC=C(C)C)C[C@]23C[C@@H](C(C)C)OC2=C(CC=C(C)C)C(=O)[C@@]1(C(=O)c1ccccc1)C3=O	> 20	> 20	> 20	> 20	> 20
CC(C)=CCC[C@]1(C)[C@@H](CC=C(C)C)C[C@]23C[C@@H](C(C)C)OC2=C(CC=C(C)C)C(=O)[C@@]1(C(=O)C(C)C)C3=O	> 20	> 20	> 20	> 20	> 20
CC(C)=CCC[C@]1(C)[C@@H](CC=C(C)C)C[C@]23C[C@@H](C(C)(C)O)OC2=C(C[C@@H]2OC(C)(C)[C@@H](CO)C2(C)C)C(=O)[C@@]1(C(=O)C(C)C)C3=O	10.2	5.8	> 20	11.3	15.6
CCC(C)C(=O)[C@@]12C(=O)C(CC=C(C)C)=C3O[C@@H](C(C)(C)O)C[C@]3(C[C@H](CC=C(C)C)[C@@]1(C)CCC=C(C)C)C2=O (stereo partly drawn)	> 20	> 20	> 20	> 20	> 20
CC(C)=CCC[C@]1(C)[C@@H](CC=C(C)C)C[C@]23C[C@H](C(C)(C)O)OC2=C(CC=C(C)C)C(=O)[C@@]1(C(=O)C(C)C)C3=O	> 20	> 20	> 20	> 20	> 20
CCC(C)C(=O)[C@@]12C(=O)C3=C(OC(C)(C)C=C3)[C@@](CC=C(C)C)(C[C@H](CC=C(C)C)[C@@]1(C)CCC=C(C)C)C2=O (stereo partly drawn)	> 20	> 20	> 20	> 20	> 20
CC(=O)O[C@H]1C(=O)[C@@]2(C)[C@H]([C@H](OC(=O)c3ccccc3)[C@]3(O)C[C@H](OC(=O)[C@H](O)[C@@H](NC(=O)c4ccccc4)c4ccccc4)C(C)=C1C3(C)C)[C@]1(OC(C)=O)CO[C@@H]1C[C@@H]2O [PACLITAXEL]	< 0.008	< 0.008	< 0.008		

From ChEMBL document CHEMBL2417480, “Bioactive polyprenylated acylphloroglucinol derivatives from Hypericum cohaerens” (J Nat Prod, 2013)
